Data: patent US5756327A, “Recombinant mycobacterial isoleucyl-tRNA synthetase genes, tester strains and assays” (priority 1995, dated 1998)

Legend:
[1] = target: TB IleRS (M. tuberculosis isoleucyl-tRNA synthetase) (Mycobacterium tuberculosis, UniProt P9WFV3); assay: tRNA charging (aminoacylation) assay, sensitivity of TB IleRS to PMA; type: biochemical; settings: concentrations of up to 250 μM
Experimental: The sensitivity of the TB IleRS for the drug pseudomonic acid A (PMA; a specific inhibitor of some prokaryotic IleRS enzymes) was tested.
The conditions of the charging assay were as follows: At time zero, 10 μl of crude extract or purified protein was added to a reaction mixture containing 50 mM HEPES, pH 7.5, 8 mM MgCl2, 20 μM tritiated isoleucine (New England Nuclear) with a specific activity of 2200 cpm/pmol, 10 mM KF, 4 mM ATP, and 0.1 mM total tRNA from either E. coli (Sigma) or yeast (S. cerevisiae, Boehringer-Mannheim Biochemicals). At various times, 10-20 μl of the reaction were withdrawn, spotted onto Whatman 3 MM cellolose filter diskettes, and the reaction was quenched by placing the filters in 5% ice cold TCA (trichloroacetic acid). Diskettes were washed three times with ice cold 5% TCA, once with 5% ice cold ethanol, once with ether, and air dried. The amount of [^3 H]-isoleucine incorporated into tRNA bound to the filter was determined by scintillation counting in 5 mls Betafluor (Packard 1600 TR scintillation counter).

[2] = system: CC[C@H](C)[C@H](N)C(=O)O; assay: cells, lysate or membranes named; settings: pH 7.5

Chain of TB IleRS (M. tuberculosis isoleucyl-tRNA synthetase) (P9WFV3 2-1032): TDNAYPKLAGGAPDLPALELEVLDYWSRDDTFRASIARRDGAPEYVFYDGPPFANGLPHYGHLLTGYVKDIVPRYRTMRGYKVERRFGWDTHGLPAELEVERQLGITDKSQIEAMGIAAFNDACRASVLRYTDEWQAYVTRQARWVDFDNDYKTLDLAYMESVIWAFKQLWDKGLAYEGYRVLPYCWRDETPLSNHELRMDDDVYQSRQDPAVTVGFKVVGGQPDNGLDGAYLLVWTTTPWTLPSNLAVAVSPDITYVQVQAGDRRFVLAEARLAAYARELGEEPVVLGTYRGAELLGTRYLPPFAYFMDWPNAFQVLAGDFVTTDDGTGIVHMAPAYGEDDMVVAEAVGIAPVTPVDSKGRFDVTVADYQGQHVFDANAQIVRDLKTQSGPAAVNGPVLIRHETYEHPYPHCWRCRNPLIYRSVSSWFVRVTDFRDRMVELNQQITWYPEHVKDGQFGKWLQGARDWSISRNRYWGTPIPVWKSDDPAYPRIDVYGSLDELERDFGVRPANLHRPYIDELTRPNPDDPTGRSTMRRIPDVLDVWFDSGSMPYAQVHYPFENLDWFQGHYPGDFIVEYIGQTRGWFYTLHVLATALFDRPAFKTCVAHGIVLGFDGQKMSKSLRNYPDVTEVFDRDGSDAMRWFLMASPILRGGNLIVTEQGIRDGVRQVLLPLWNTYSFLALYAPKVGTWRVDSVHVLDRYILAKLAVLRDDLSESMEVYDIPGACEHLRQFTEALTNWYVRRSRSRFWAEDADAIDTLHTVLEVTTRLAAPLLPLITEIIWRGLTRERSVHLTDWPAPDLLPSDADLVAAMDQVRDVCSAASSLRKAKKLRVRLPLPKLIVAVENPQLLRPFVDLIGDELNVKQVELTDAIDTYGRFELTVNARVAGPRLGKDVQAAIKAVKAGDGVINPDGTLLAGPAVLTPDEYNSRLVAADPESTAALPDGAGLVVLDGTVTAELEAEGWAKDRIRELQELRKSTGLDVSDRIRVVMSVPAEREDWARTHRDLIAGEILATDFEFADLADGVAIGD

Compound | inhibition of the charging activity of the enzyme [1] | Km [2]
C/C(=C\C(=O)OCCCCCCCCC(=O)O)C[C@@H]1OC[C@H](C[C@@H]2O[C@H]2[C@@H](C)[C@H](C)O)[C@@H](O)[C@H]1O [PMA, pseudomonic acid A] | did not inhibit | –
purified TB GST-IleRS fusion protein with or without thrombin cleavage (Mycobacterium tuberculosis H37Rv) | – | 1.1 ± 0.2 µM
